Test [1] has as its target T1, FGF-R1 intracellular kinase domain (Homo sapiens, UniProt P11362, C488A/C584S/L457V).
T1 construct: starting from the endogenous methionine residue 456 to glutamate 766; made in house; host or cells: baculovirus vector expression system
Description: FGF-R spectrophotometric assay. The format is biochemical. As to conditions: 50 nM test compound; read-out: FGF-P (% inh @ 50 nM). The method, then: The intracellular kinase domain of human FGF-R1 was expressed using the baculovirus vector expression system starting from the endogenous methionine residue 456 to glutamate 766, according to the residue numbering system of Mohammadi et al., Mol. Cell. Biol., 16, 977–989 (1996). In addition, the construct also has the following 3 amino acid substitutions: L457V, C488A, and C584S.
The spectrophotometric assay was carried out as described above for VEGF-R2, except for the following changes in concentration: FGF-R=50 nM, ATP=2 mM, and poly(E4Y1)=15 mM.

The subject of test [2] is human umbilical vein endothelial cells (HUVEC). Description: HUVEC + VEGF proliferation assay. The format is cell-based. As to conditions: VEGF-stimulated proliferation, final VEGF 6 ng/mL, 72 hours, MTT. The procedure: This assay determines the ability of a test compound to inhibit the growth factor-stimulated proliferation of human umbilical vein endothelial cells (“HUVEC”). HUVEC cells (passage 3–4, Clonetics, Corp.) were thawed into EGM2 culture medium (Clonetics Corp) in T75 flasks. Fresh EGM2 medium was added to the flasks 24 hours later. Four or five days later, cells were exposed to another culture medium (F12K medium supplemented with 10% fetal bovine serum (FBS), […] endothelial cell growth supplement (ECGS), and 0.1 mg/mL heparin). Exponentially-growing HUVEC cells were used in experiments thereafter. Ten to twelve thousand HUVEC cells were plated in 96-well dishes in […] of rich, culture medium (described above). The cells were allowed to attach for 24 hours in this medium. The medium was then removed by aspiration and […] of starvation media (F12K+1% FBS) was added to each well. After 24 hours, […] of test agent dissolved in 1% DMSO in starvation medium or this vehicle alone was added into each treatment well; the final DMSO concentration was 0.1%. One hour later, […] of VEGF (30 ng/mL) in starvation media was added to all wells except those containing untreated controls; the final VEGF concentration was 6 ng/mL. Cellular proliferation was quantified 72 hours later by MTT dye reduction, at which time cells were exposed for 4 hours MTT (Promega Corp.). Dye reduction was stopped by addition of a stop solution (Promega Corp.) and absorbance at 595 nm was determined on a 96-well spectrophotometer plate reader.

For test [3], the target named is T2, unphosphorylated VEGF-R2D50 (FLVK), cytosolic domain of human VEGF-R2 (Homo sapiens, UniProt P35968, DEL940-989/E990V).
T2 construct: VEGF-R2D50 contains residues 806–939 and 990–1171; made in house; host or cells: baculovirus/insect cell system
Nature of the test: VEGF-R2 coupled spectrophotometric assay (FLVK). The format is biochemical. The text has this: This construct determines the ability of a test compound to inhibit tyrosine kinase activity. A construct (VEGF-R2D50) of the cytosolic domain of human vascular endothelial growth factor receptor 2 (VEGF-R2) lacking the 50 central residues of the 68 residues of the kinase insert domain was expressed in a baculovirus/insect cell system. Of the 1356 residues of full-length VEGF-R2, VEGF-R2D50 contains residues 806–939 and 990–1171, and also one point mutation (E990V) within the kinase insert domain relative to wild-type VEGF-R2. Autophosphorylation of the purified construct was performed by incubation of the enzyme at a concentration of […] in the presence of 3 mM ATP and 40 mM MgCl2 in 100 mM HEPES, pH 7.5, containing 5% glycerol and 5 mM DTT, at 4° C. for 2 h. […] See Parast et al., Biochemistry, 37, 16788–16801 (1998).
The production of ADP from ATP that accompanies phosphoryl transfer was coupled to oxidation of NADH using phosphoenolpyruvate (PEP) and a system having pyruvate kinase (PK) and lactic dehydrogenase (LDH). The oxidation of NADH was monitored by following the decrease of absorbance at 340 nm (e340=6.22 cm^−1 mM^−1) using a Beckman DU 650 spectrophotometer. Assay conditions for phosphorylated VEGF-R2D50 (indicated as FLVK-P in the tables below) were the following: 1 mM PEP; […]; 50 units of LDH/mL; 20 units of PK/mL; 5 mM DTT; 5.1 mM poly(E4Y1); 1 mM ATP; and 25 mM MgCl2 in 200 mM HEPES, pH 7.5. Assay conditions for unphosphorylated VEGF-R2D50 (indicated as FLVK in the tables) were the following: 1 mM PEP; […]; 50 units of LDH/mL; 20 units of PK/mL; 5 mM DTT; 20 mM poly(E4Y1); 3 mM ATP; and 60 mM MgCl2 and 2 mM MnCl2 in 200 mM HEPES, pH 7.5. Assays were initiated with 5 to 40 nM of enzyme. Ki values were determined by measuring enzyme activity in the presence of varying concentrations of test compounds. The percent inhibition at 50 nm (% inhibition@50 nm) was determined by linear least-squares regression analysis of absorpbance as a function of time. The binding inhibitions were fitted to equation as described by Morrison. The data were analyzed using Enzyme Kinetic and Kaleidagraph software.

The record followed here is patent US7208500B2, “Thienopyridine-phenylacetamides and their derivatives useful as new anti-angiogenic agents” (Agouron Pharmaceuticals, Inc., priority 2003, dated 2007).

T1 sequence (P11362 456-766 L457V/C488A/C584S): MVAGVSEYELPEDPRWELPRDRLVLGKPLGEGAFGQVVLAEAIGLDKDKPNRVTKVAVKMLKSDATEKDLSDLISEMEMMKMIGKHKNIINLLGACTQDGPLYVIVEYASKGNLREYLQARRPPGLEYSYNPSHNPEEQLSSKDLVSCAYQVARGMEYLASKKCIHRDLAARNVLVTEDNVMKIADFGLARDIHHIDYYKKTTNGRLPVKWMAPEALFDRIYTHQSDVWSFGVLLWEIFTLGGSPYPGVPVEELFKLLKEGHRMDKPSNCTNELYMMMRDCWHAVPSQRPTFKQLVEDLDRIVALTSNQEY
T2 sequence (P35968 with tags, fused parts or gaps DEL940-989/E990V limits assumed): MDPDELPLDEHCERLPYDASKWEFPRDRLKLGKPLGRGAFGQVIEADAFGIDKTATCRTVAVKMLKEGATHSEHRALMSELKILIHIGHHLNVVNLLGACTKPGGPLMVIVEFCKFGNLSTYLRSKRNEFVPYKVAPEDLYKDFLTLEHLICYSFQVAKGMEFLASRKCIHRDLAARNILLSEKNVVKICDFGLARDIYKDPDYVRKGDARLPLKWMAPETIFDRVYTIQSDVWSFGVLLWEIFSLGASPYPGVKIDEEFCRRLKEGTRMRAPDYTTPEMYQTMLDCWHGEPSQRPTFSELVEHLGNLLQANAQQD

For `Cc1cc(C)nc(NC(=O)Cc2ccc(Oc3ccnc4cc(C(=O)N5C[C@@H](O)[C@@H](O)C5)sc34)cc2)c1` [Example 3], in test [1], the inhibition at 0.05 µM is 0 to 5%. Also, the IC50 (commonly the concentration that gives 50% inhibition) in test [2] was less than 1 nM.

As for `Cc1cc(C)nc(NC(=O)Cc2ccc(Oc3ccnc4cc(C(=O)N5CC[C@@H](N(C)C)C5)sc34)cc2)c1` [Example 4, 2-{4-[2-((R)-3-Dimethylamino-pyrrolidine-1-carbonyl)-thieno[3,2-b]pyridin-7-yloxy]-phenyl}-N-(4,6-dimethyl-pyridin-2-yl)-acetamide], in test [1], the inhibition at 0.05 µM fell in the range of 5 to 10%. The Ki (commonly a dissociation constant, usually derived from enzyme kinetics or from competition with a known ligand) in test [3] is less than 1 nM. Moreover, the IC50 in test [2] was 1 to 10 nM.

On to `Cc1cc(C)nc(NC(=O)Cc2ccc(Oc3ccnc4cc(C(=O)N(C)CCN(C)C)sc34)cc2)c1` [Example 6, 7-{4-[(4,6-Dimethyl-pyridin-2-ylcarbamoyl)-methyl]-phenoxy}-thieno[3,2-b]pyridine-2-carboxylic acid (2-dimethylamino-ethyl)-methyl-amide], for which, in test [1], the inhibition at 0.05 µM was in the range of 5 to 10%. In addition, in test [3], the Ki was less than 1 nM. Moreover, the IC50 in test [2] was greater than 10 nM.

In the case of `Cc1cc(C)nc(NC(=O)Cc2ccc(Oc3ccnc4cc(C(=O)N(C)C)sc34)cc2)c1` [Example 7, 7-{4-[(4,6-Dimethyl-pyridin-2-ylcarbamoyl)-methyl]-phenoxy}-thieno[3,2-b]pyridine-2-carboxylic acid dimethylamide], in test [1], the inhibition at 0.05 µM was 5 to 10%. Also, the Ki in test [3] was less than 1 nM. Besides, the IC50 in test [2] is less than 1 nM.

For the compound `CN(C)C(=O)c1cc2nccc(Oc3ccc(CC(=O)Nc4ccc(Cl)cn4)cc3)c2s1` [Example 8, 7-{4-[(5-Chloro-pyridin-2-ylcarbamoyl)-methyl]-phenoxy}-thieno[3,2-b]pyridine-2-carboxylic acid dimethylamide], the inhibition at 0.05 µM in test [1] was 0 to 5%. Also, the Ki in test [3] lay in the range of 1 to 10 nM. In test [2], the IC50 was greater than 10 nM.

With `Cc1cc(C)nc(NC(=O)Cc2ccc(Oc3ccnc4cc(-c5nccn5C)sc34)cc2)c1` [Example 9, N-(4,6-Dimethyl-pyridin-2-yl)-2-{4-[2-(1-methyl-1H-imidazol-2-yl)-thieno[3,2-b]pyridin-7-yloxy]-phenyl}-acetamide], the inhibition at 0.05 µM in test [1] is 5 to 10%. Moreover, the Ki in test [3] is less than 1 nM. The IC50 in test [2] was less than 1 nM.

In the case of `Cn1ccnc1-c1cc2nccc(Oc3ccc(CC(=O)Nc4ccc(Cl)cn4)cc3)c2s1` [Example 10, N-(5-Chloro-pyridin-2-yl)-2-{4-[2-(1-methyl-1H-imidazol-2-yl)-thieno[3,2-b]pyridin-7-yloxy]-phenyl}-acetamide], the inhibition at 0.05 µM in test [1] lay in the range of 0 to 5%. The compound further registered a Ki in test [3] of less than 1 nM. Also, the IC50 in test [2] is less than 1 nM.

For `Cc1cc(C)nc(NC(=O)Cc2ccc(Oc3ccnc4cc(C(=O)N5CCC5)sc34)cc2)c1` [Example 22, 2-{4-[2-(Azetidine-1-carbonyl)-thieno[3,2-b]pyridin-7-yloxy]-phenyl}-N-(4,6-dimethyl-pyridin-2-yl)-acetamide], the inhibition at 0.05 µM in test [1] lay within 0 to 5%. For the same compound, the IC50 in test [2] was less than 1 nM.

Consider `O=C(Cc1ccc(Oc2ccnc3cc(C(=O)N4CCC4)sc23)cc1)Nc1ccc2[nH]ncc2c1` [Example 36, 2-{4-[2-(Azetidine-1-carbonyl)-thieno[3,2-b]pyridin-7-yloxy]-phenyl}-N-(1H-indazol-5-yl)-acetamide], for which the inhibition at 0.05 µM in test [1] fell in the range of 0 to 5%. Besides, in test [2], the IC50 is greater than 10 nM.

Turning to `O=C(Cc1ccc(Oc2ccnc3cc(C(=O)N4CCC4)sc23)cc1)Nc1ccc(N2CCOCC2)nc1` [Example 38, 2{-4-[2-(Azetidine-1-carbonyl)-thieno[3,2-b]pyridin-7-yloxy]-phenyl}-N-(6-morpholin-4-yl-pyridin-3-yl)-acetamide], the inhibition at 0.05 µM in test [1] lay in the range of 0 to 5%. Besides, the IC50 in test [2] was greater than 10 nM.

For `Cc1cc(NC(=O)Cc2ccc(Oc3ccnc4cc(C(=O)N5CCC5)sc34)cc2Cl)nn1C` [Example 56, 2-{4-[2-(Azetidine-1-carbonyl)-thieno[3,2-b]pyridin-7-yloxy]-2-chloro-phenyl}-N-(1,5-dimethyl-1H-pyrazol-3-yl)-acetamide], in test [1], the inhibition at 0.05 µM lay in the range of 0 to 5%. The IC50 in test [2] was greater than 10 nM.

With `CNC(=O)C(O)c1ccc(Oc2ccnc3cc(C(=O)N4CC[C@@H](OC)C4)sc23)cc1` (stereo partly drawn) [Example 77, 2-Hydroxy-2-{4-[2-((R)-3-methoxy-pyrrolidine-1-carbonyl)-thieno[3,2-b]pyridin-7-yloxy]-phenyl}-N-methyl-acetamide], the inhibition at 0.05 µM in test [1] lay in the range of 0 to 5%. This compound had an inhibitory constant (Ki) in test [3] greater than 10 nM.

As to `CNC(=O)C(=O)c1ccc(Oc2ccnc3cc(C(=O)N4CC[C@@H](OC)C4)sc23)cc1` [Example 78, 2-{4-[2-((R)-3-Methoxy-pyrrolidine-1-carbonyl)-thieno[3,2-b]pyridin-7-yloxy]-phenyl}-N-methyl-2-oxo-acetamide], the inhibition at 0.05 µM in test [1] is greater than 10%. Moreover, in test [3], the Ki is greater than 10 nM.

Regarding `COC(C(=O)Nc1cc(C)no1)c1ccc(Oc2ccnc3cc(C(=O)N4CCC4)sc23)cc1` (stereo not drawn) [Example 79, 2-{4-[2-(Azetidine-1-carbonyl)-thieno[3,2-b]pyridin-7-yloxy]-phenyl}-2-methoxy-N-(3-methyl-isoxazol-5-yl)-acetamide], in test [1], the inhibition at 0.05 µM was in the range of 0 to 5%. In test [3], this compound came in with a Ki greater than 10 nM.

With `Cc1cc(NC(=O)C(O)c2ccc(Oc3ccnc4cc(C(=O)N5CCC5)sc34)cc2)on1` (stereo not drawn) [Example 80, 2-{4-[2-(Azetidine-1-carbonyl)-thieno[3,2-b]pyridin-7-yloxy]-phenyl}-2-hydroxy-N-(3-methyl-isoxazol-5-yl)-acetamide], the inhibition at 0.05 µM in test [1] was in the range of 5 to 10%. The same compound came in with an inhibitory constant (Ki) in test [3] greater than 10 nM.

With `CCCCNC(=O)C(O)c1ccc(Oc2ccnc3cc(C(=O)N4CCC4)sc23)cc1` (stereo not drawn) [Example 82, 2-{4-[2-(Azetidine-1-carbonyl)-thieno[3,2-b]pyridin-7-yloxy]-phenyl}-N-butyl-2-hydroxy-acetamide], in test [1], the inhibition at 0.05 µM was 0 to 5%. The Ki in test [3] is greater than 10 nM.

Take `COC(C(=O)Nc1ccccn1)c1ccc(Oc2ccnc3cc(C(=O)N4CCC4)sc23)cc1` (stereo not drawn) [Example 83, 2-{4-[2-(Azetidine-1-carbonyl)-thieno[3,2-b]pyridin-7-yloxy]-phenyl}-2-methoxy-N-pyridin-2-yl-acetamide]: the inhibition at 0.05 µM in test [1] lay in the range of 5 to 10%. This compound returned a Ki in test [3] greater than 10 nM.

For `O=C(Nc1ccccn1)C(O)c1ccc(Oc2ccnc3cc(C(=O)N4CCC4)sc23)cc1` (stereo not drawn) [Example 84, 2-{4-[2-(Azetidine-1-carbonyl)-thieno[3,2-b]pyridin-7-yloxy]-phenyl}-2-hydroxy-N-pyridin-2-yl-acetamide], the inhibition at 0.05 µM in test [1] lay within 5 to 10%. In addition, the Ki in test [3] was greater than 10 nM.
